# Assay results: patent US5457119A, “A89271 factors and processes for their production” (priority 1994, dated 1995)
# Tests used:
# Type in all cases: cell-based
# Candida albicans [1] = assay: In vitro antifungal activity, RPMI and 10% fetal calf serum broth; settings: Table 3, RPMI & 10% Fetal Calf Serum Broth
# Text: (§1) In those tables, a dash or "N.T." means the material was not tested.
# [2] = test system: Trichophyton mentagrophytes; assay: as above; settings: Table 3, RPMI & 10% Fetal Calf Serum Broth
# Text: as §1
# [3] = test system: CX-1 human colon solid tumor cell line; assay: Disk diffusion soft agar colony formation assay; settings: factor line, no dose given, 200 zone units = 6 MM
# Method: (§2) The method of performing the disk diffusion soft agar colony […] assay is described in Chapter 3 of Cytotoxic Anticancer Drugs: Models and Concepts for Drug Discovery and Development (Frederick A. Valeriote, et al., eds., 1990). In addition to the procedure taught in this reference, one mL ethanol was added to each dry factor in a vial, and the desired concentration of solution was placed on a paper disk. The disk was dried and then placed on soft agar plates as described in the reference.
# CX1 = human colon solid tumor cell line
# (§3) ^2 Measurement in zone units; 200 zone units = 6 MM
# [4] = test system: C38 murine colon solid tumor cell line; assay: Disk diffusion soft agar colony formation assay; settings: 200 zone units = 6 MM
# Method: as §2
# C38 = murine colon solid tumor cell line
# as §3
# Aspergillus fumigatus = assay: In vitro antifungal activity, Sabouraud's and Dextrose broth; settings: Table 4
# Text: as §1
# Candida albicans [5] = assay: as above; settings: Table 4
# Text: as §1
# [6] = test system: Trichophyton mentagrophytes; assay: as above; settings: Table 4
# Text: as §1
# [7] = test system: H8 human colon solid tumor cell line; assay: Disk diffusion soft agar colony formation assay; settings: 200 zone units = 6 MM
# Method: as §2
# H8 = human colon solid tumor cell line
# as §3
# [8] = test system: LML "Low Malignancy Line" fibroblast; assay: Disk diffusion soft agar colony formation assay; settings: 200 zone units = 6 MM
# Method: as §2
# LML = "Low Malignancy Line" fibroblast
# as §3
# [9] = test system: Mam17 murine mammary solid tumor cell line; assay: Disk diffusion soft agar colony formation assay; settings: factor line, no dose given, 200 zone units = 6 MM
# Method: as §2
# Mam17 = murine mammary solid tumor cell line
# as §3
# [10] = test system: L1210 murine leukemia cell line; assay: Disk diffusion soft agar colony formation assay; settings: 200 zone units = 6 MM
# Method: as §2
# L1210 = murine leukemia cell line
# as §3
smiles,measurement,setting,value
[C-]#[N+]C1C2c3c(C(C)(C)C=C)[nH]c4cccc(c34)C(C)(C)C2CC(Cl)C1(C)C=C (centres unmarked) [A89271 B],MIC,Candida albicans [1],1.25 µg/mL
same,MIC,[2],2.5 µg/mL
same,Measurement in zone units,[3],220 zone units
same,Measurement in zone units,[4]; 20 ug per disk,260-400 zone units
same,Measurement in zone units,[4]; 80 ug per disk,430 zone units
same,MIC,Aspergillus fumigatus,20 µg/mL
same,MIC,Candida albicans [5],1.25 µg/mL
same,MIC,[6],> 80 µg/mL
same,Measurement in zone units,[7]; 20 ug per disk,180 zone units
same,Measurement in zone units,[7]; 80 ug per disk,200-300 zone units
same,Measurement in zone units,[8]; 20 ug per disk,0-100 zone units
same,Measurement in zone units,[8]; 80 ug per disk,80-250 zone units
same,Measurement in zone units,"[8]; factor line, no dose given",0-250 zone units
same,Measurement in zone units,[9],220 zone units
same,Measurement in zone units,[10]; 20 ug per disk,100-200 zone units
same,Measurement in zone units,[10]; 80 ug per disk,200-250 zone units
same,Measurement in zone units,"[10]; factor line, no dose given",210 zone units
